Source: patent US4031239A, “Cyclopropanecarboxylates for systemic control of ectoparasites” (American Cyanamid Company, priority 1975, dated 1977)

Key:
Stomoxys calcitrans = test: Animal systemic insecticidal activity, flies fed on mice dosed by gavage (Example 3); format: in vivo, Stomoxys calcitrans (stable flies) fed on mice; conditions: 18 hours feeding, mortality at 24 hours
Protocol: To determine the effectiveness of the compounds of the invention as animal systemic insecticidal agents, test compounds are mixed in 10% acetone-90% sesame oil and administered by gavage to mice each at 25, 100 and/or 400 mg/kg of animal body weight.
Adult, one day old, unfed flies Stomoxys calcitrans are then exposed to the mice for 18 hours to permit them to feed on said mice. Mortality counts are made at 24 hours and data obtained are reported below as percent control of stable flies.

Rhipicephalus sanguineus = test: Systemic ixodicidal activity, daily oral dosing of tick-infested guinea pigs (Example 1); format: in vivo
From the text: (§1) Albino guinea pigs are housed individually and fed guinea pig chow and water ad libitum. One leaf of cabbage per day is also given to each guinea pig.
The diet employed in these tests is as follows:
Crude protein not less than 18.0%
Crude fat not less than 4.0%
Crude fiber not more than 16.0%
Added minerals not more than 3.5%
and consists of the following ingredients: Ground wheat, ground yellow corn, dried skimmed milk, soybean meal, dehydrated alfalfa meal, cane molasses, wheat middlings, animal fat preserved with BHA, vitamin B12 supplement; riboflavin supplement, cholin chloride, calcium pantothenate, thiamin, niacin, folic acid, ascorbic acid, vitamin A supplement, D activated sterol (source of Vitamin D3), methionine hydroxy analogue calcium, pyridoxine hydrochloride, vitamin E supplement, dicalcium phosphate, calcium carbonate, iodized salt, copper oxide sulfate, iron sulfate, iron oxide, manganous oxide, cobalt carbonate, zinc oxide.
(§2) To the shaved back of each guinea pig, a capsule made from a 2 inch spud gasket, with the base ground down to provide greater flexibility, is glued using 3M adhesive no. 8001. Five male and five female adult Rhipicephalus sanguineus ticks are placed inside the capsule and allowed to attach to the guinea pig. A gauze material is fastened over the top of the gasket to prevent the ticks from escaping.
(§3) The guinea pigs are given a daily oral dose by gelatin capsule of either 400 or 100 mg per kilogram body weight of the test compound. […]

Dermacentor variabilis = test: Systemic ixodicidal activity, daily oral dosing of tick-infested guinea pigs (Example 2); format: in vivo
[1] = test system: Rhipicephalus sanguineus; Dermacentor variabilis; test: Systemic ixodicidal activity by the methods of the Examples, stated for both tick species together; format: in vivo; conditions: trans and cis; no figures given
From the text: as §1, §2, §3

[2] = Rhipicephalus sanguineus, in Cavia porcellus, po, read-out: % Tick Mortality

Compound | % Control of Stable Flies (Stomoxys calcitrans; 25 mg/kg by gavage) | % Control of Stable Flies (Stomoxys calcitrans; 100 mg/kg by gavage) | % Control of Stable Flies (Stomoxys calcitrans; 400 mg/kg by gavage) | further results
CC1(C)C(C=C(Cl)Cl)C1C(=O)OC(C#N)c1cccc(Oc2ccccc2)c1 (stereo not shown) | 63% | 80% | 96% | 
CC(C)=CC1C(C(=O)OC(C#N)c2cccc(Oc3ccccc3)c2)C1(C)C (stereo not shown) | 30% | 80% | 100% | 
CC1(C)C(C=C(Cl)Cl)C1C(=O)OCc1cccc(Oc2ccccc2)c1 (mixture of isomers) [Cyclopropanecarboxylic acid, 3-(2,2-dichlorovinyl)-2,2-dimethyl-m-phenoxybenzyl ester] |  |  |  | mortality at 100 mg/kg (Rhipicephalus sanguineus; [2]): 80%; mortality at 400 mg/kg (Rhipicephalus sanguineus; [2]): 100%; time after initial treatment during which ticks do not appear to be affected (then moribund and die shortly thereafter) (Rhipicephalus sanguineus; daily oral dose 400 or 100 mg/kg, guinea pigs, slight color changes and some reduction in size excepted): about 3 days
CC1(C)C(C=C(Cl)Cl)C1C(=O)OCc1cccc(Oc2ccccc2)c1 (stereo not shown) [Cyclopropanecarboxylic acid, 3-(2,2-dichlorovinyl)-2,2-dimethyl-, m-phenoxybenzyl ester] |  |  |  | susceptibility of ticks to the test compound (Dermacentor variabilis; Dermacentor variabilis, compared with Example 1 (Rhipicephalus sanguineus)): somewhat less susceptible; mortality at 100 mg/kg (Dermacentor variabilis; Dermacentor variabilis, in Cavia porcellus, daily oral dose 100 mg/kg, guinea pigs): 0%; mortality at 400 mg/kg (Dermacentor variabilis; Dermacentor variabilis, in Cavia porcellus, daily oral dose 400 mg/kg, guinea pigs): 80%; time after which ticks become moribund and die shortly thereafter (Dermacentor variabilis; method of Example 1, daily oral dose, guinea pigs): about 5 days
CC(C)=CC1C(C(=O)OCc2cccc(Oc3ccccc3)c2)C1(C)C (stereo not shown) [cyclopropanecarboxylic acid, 2,2-dimethyl-3-(2-methylpropenyl)-m-phenoxybenzyl ester] |  |  |  | ixodicidal results compared with those in the Examples [1]: Results comparable to those in the Examples
CC1(C)C(C=C(Cl)Cl)C1C(=O)OCc1cccc(Oc2ccccc2)c1 (stereo not shown) [drawing 8] | 36% | 100% |  | 
